Laboratory results taken from US6852696B2, “Inhibitors of glycosaminoglycans” (The University of Texas System, priority 1999, dated 2005).

System: DC-associated HA
Assay: Binding of biotinylated peptide to DC surfaces
Details: biotinylated form
Experimental: FIGS. 8B-D. Synthesis and surface expression of HA by DC. (B) XS106 DC were labeled with ^3H-glucosamine and then examined for the incorporation of hyaluronidase-sensitive radioactivities (means+/−s.e.m.; n=5) into the indicated subcellular fractions. (C) XS106 DC were incubated with biotinylated Pep-1 or RP and then with PE-conjugated streptavidin (filed histograms) (Mummert et al. J. Exp. Med. 192:769-779, 2000) or bovine testis hyaluronidase. Baseline staining levels with PE-streptavidin alone are shown with open histograms. (D) The indicated DC preparations were examined for binding of biotinylated Pep-1 (filled) and RP (open). Peptide binding to splenic DC and bone marrow-DC was examined within the CD11c^+ populations.

binding to surfaces of XS106 DC: no significant binding
Sequence: SATPASAPYPLA [RP, reference compound]
